Measurements as given in paper PMC7655067, “Crystal structure-guided design of berberine-based novel chitinase inhibitors” (Journal of Enzyme Inhibition and Medicinal Chemistry, 2020).
Counter-ions that a name gives are not always drawn. Like-named read-outs stand apart in the source and are kept apart here. Each block holds one molecule with its values, some of them ahead of it.

Key:
SmChiB [1] = target: T1, SmChiB (Serratia marcescens, UniProt P11797); test: biochemical; format: biochemical
T1 construct: made in house; host or cells: Escherichia coli BL21 (DE3)
T1 sequence (P11797 42-499): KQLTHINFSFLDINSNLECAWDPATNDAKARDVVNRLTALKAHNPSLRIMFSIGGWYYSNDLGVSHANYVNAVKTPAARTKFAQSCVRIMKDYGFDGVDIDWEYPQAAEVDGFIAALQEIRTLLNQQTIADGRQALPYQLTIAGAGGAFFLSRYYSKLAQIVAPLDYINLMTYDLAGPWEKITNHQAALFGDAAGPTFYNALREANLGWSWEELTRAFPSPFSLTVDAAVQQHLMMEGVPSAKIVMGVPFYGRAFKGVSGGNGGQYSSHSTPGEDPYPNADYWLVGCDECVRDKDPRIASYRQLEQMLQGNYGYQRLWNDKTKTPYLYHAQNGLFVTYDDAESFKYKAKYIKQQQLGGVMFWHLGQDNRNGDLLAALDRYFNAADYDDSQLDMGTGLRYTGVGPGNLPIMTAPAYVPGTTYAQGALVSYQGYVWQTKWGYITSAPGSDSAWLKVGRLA
Experimental: (§1) ChiB from S. marcescens was expressed in Escherichia coli BL21 (DE3). The other GH18 chitinases including the catalytic domains of OfChtI from O. furnacalis, human HsCht and human hAMCase were expressed in P. pastoris GS115. All the proteins were purified by immobilised metal affinity chromatography (IMAC) as described previously. The purities of the target proteins were analysed by SDS-PAGE followed by Coomassie Brilliant Blue R-250 staining.
(§2) The activity of GH18 chitinases were determined using MU-(GlcNAc)2 as a substrate. The reaction mixtures used for determining the inhibitor activity of compounds consisted of 100 μL of 20 nM enzyme, 4 μM MU-(GlcNAc)2, 1 or 10 μM inhibitors and 2% DMSO in the buffer (20 mM sodium phosphate, pH 6.0, for SmChiB, OfChtI and HsCht; 20 mM sodium citrate, pH 5.2, for hAMCase). The reaction in the absence of compounds was used as a positive control. After incubating at 30 °C for 25 min, an equal volume of 0.5 M sodium carbonate was added to the reaction mixtures to terminate the reaction, and the fluorescence produced by the released MU was quantified using a Varioskan Flash microplate reader (Thermo Fisher Scientific, Waltham, MA), with excitation and emission wavelengths of 360 and 450 nm, respectively. Experiments were performed in triplicate. […] The Ki values and types of inhibition were determined by linear fitting of the data in Dixon plots.

HsCht [2] = target: T2, HsCht (Homo sapiens, UniProt Q13231); test: Inhibitory activity assay with MU-(GlcNAc)2, Ki by Dixon plots; format: biochemical; conditions: pH 6.0
T2 construct: including the catalytic domains of OfChtI from O. furnacalis, human HsCht and human hAMCase; made in house; host or cells: Pichia pastoris GS115
T2 sequence (Q13231 22-388 limits assumed): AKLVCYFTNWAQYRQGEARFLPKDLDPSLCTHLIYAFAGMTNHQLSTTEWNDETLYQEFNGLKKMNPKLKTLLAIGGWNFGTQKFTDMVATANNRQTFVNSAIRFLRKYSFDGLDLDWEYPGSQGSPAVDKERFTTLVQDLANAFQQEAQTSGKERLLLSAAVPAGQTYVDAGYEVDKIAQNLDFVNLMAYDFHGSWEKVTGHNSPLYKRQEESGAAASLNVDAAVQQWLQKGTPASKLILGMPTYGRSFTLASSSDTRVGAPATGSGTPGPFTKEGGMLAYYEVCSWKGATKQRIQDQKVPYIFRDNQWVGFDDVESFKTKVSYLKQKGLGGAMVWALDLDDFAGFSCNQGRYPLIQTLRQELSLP
Experimental: as §1, §2

OfChtI [3] = target: T3, OfChtI (Ostrinia furnacalis, UniProt Q2V6H4); test: as above; format: biochemical; conditions: for Ki: pH 6.0, Dixon plots
T3 sequence (Q2V6H4 entry or part of it): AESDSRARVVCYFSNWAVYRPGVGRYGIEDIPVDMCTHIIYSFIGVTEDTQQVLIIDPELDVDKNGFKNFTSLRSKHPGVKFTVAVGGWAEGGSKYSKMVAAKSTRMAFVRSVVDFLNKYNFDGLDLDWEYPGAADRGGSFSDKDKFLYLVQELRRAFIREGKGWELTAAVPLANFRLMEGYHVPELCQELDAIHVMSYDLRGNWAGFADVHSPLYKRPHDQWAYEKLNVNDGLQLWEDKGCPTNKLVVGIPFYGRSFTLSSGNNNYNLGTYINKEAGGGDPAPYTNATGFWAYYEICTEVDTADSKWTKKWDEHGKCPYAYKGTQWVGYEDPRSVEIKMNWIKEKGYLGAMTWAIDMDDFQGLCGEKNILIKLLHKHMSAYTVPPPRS
Experimental: as §1, §2

hAMCase [4] = target: T4, hAMCase (Homo sapiens, UniProt Q9BZP6); test: as above; format: biochemical; conditions: pH 5.2
T4 construct: including the catalytic domains of OfChtI from O. furnacalis, human HsCht and human hAMCase; made in house; host or cells: Pichia pastoris GS115
T4 sequence (Q9BZP6 22-390 limits assumed): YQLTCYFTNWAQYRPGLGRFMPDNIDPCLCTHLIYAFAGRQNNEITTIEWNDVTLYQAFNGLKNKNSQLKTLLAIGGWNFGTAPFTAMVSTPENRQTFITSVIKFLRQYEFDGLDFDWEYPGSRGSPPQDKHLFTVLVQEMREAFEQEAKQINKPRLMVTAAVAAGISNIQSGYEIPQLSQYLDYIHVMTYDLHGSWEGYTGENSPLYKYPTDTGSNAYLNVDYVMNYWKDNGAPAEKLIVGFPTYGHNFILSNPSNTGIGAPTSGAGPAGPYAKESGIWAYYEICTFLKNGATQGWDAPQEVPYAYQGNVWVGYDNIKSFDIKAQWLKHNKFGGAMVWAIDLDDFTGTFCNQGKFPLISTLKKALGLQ
Experimental: as §1, §2

SmChiB [5] = target: T1, SmChiB; test: Tryptophan fluorescence quenching, Kd by modified Stern-Volmer equation; format: binding
Experimental: (§3) Tryptophan fluorescence (295 nm excitation) was measured at 25 °C from 300 to 400 nm with a Varioskan Flash microplate reader using excitation and emission band passes of 5 nm. Fluorescence quenching experiments were performed in a 200 μL mixture containing 1 μM protein in the buffer (20 mM sodium phosphate, pH 6.0, for SmChiB, OfChtI and HsCht; 20 mM sodium citrate, pH 5.2, for hAMCase), and by the successive addition of aliquots of compounds stock solution. Since the crystal structure confirmed that berberine binding to SmChiB in a 1:1 ratio, the dissociation constant Kd were then determined using the modified Stern-Volmer equation[35]^,[36]. […]

OfChtI [6] = target: T3, OfChtI; test: as above; format: binding
Experimental: as §3

HsCht [7] = target: T2, HsCht; test: as above; format: binding; conditions: pH 6.0
Experimental: (§4) Fluorescence quenching experiments were performed in a 200 μL mixture containing 1 μM protein in the buffer (20 mM sodium phosphate, pH 6.0, for SmChiB, OfChtI and HsCht; 20 mM sodium citrate, pH 5.2, for hAMCase), and by the successive addition of aliquots of compounds stock solution.

hAMCase [8] = target: T4, hAMCase; test: as above; format: binding; conditions: pH 5.2
Experimental: as §4

OfChtI [9] = target: T3, OfChtI; design: method as in PMID 30135205; conditions: cited from earlier work
HsCht [10] = target: T2, HsCht; design: method as in PMID 30135205; conditions: cited from earlier work
hAMCase [11] = target: T4, hAMCase; design: method as in PMID 30135205; conditions: cited from earlier work
[12] = SmChiB, pH 6.0, Dixon plots, read-out: Ki
[13] = SmChiB, tryptophan fluorescence quenching, pH 6.0, read-out: Kd

SMILES: COc1ccc2cc3[n+](cc2c1OC(=O)c1ccccc1)CCc1cc2c(cc1-3)OCO2 [4b]
Ki (SmChiB [1]; [12]): 2.36 µM
Ki (HsCht [2]): 11.4 µM
Ki (OfChtI [3]): 7.28 µM
Ki (hAMCase [4]): 4.62 µM
Kd (SmChiB [5]; [13]): 2.99 µM

SMILES: COc1ccc2cc3[n+](cc2c1OC(=O)c1ccc(F)nc1)CCc1cc2c(cc1-3)OCO2 [4c]
Ki (SmChiB [1]; [12]): 0.15 µM
inhibitory activity increase compared to berberine (OfChtI [3]; from Ki values): 7.5 fold
Ki (OfChtI [3]): 3.03 µM
Kd (OfChtI [6]; OfChtI, tryptophan fluorescence quenching, pH 6.0, read-out: Kd): 2.58 µM
Kd (SmChiB [5]; [13]): 0.19 µM

SMILES: COc1ccc2cc3[n+](cc2c1OC)CCc1cc2c(cc1-3)OCO2 [Berberine, berberine]
Ki (SmChiB [1]): 11.8 µM
type of inhibition (SmChiB [1]; SmChiB, Dixon plots): competitive inhibitor
Kd (OfChtI [6]): 20.6 µM
Kd (SmChiB [5]): 12 µM
Kd (HsCht [7]): 21.9 µM
Kd (hAMCase [8]): 58 µM
Ki (OfChtI [9]): 23 µM
type of inhibition (OfChtI [9]): competitive inhibitor
Ki (HsCht [10]): 19 µM
type of inhibition (HsCht [10]): competitive inhibitor
Ki (hAMCase [11]): 65 µM
type of inhibition (hAMCase [11]): competitive inhibitor

The remaining lines, values ahead:

melting point: 192 °C (dec.)
SMILES: COC(=O)CCC(=O)Oc1c(OC)ccc2cc3[n+](cc12)CCc1cc2c(cc1-3)OCO2 (as salt: chloride) [4a]

Ki (SmChiB [1]; [12]): 0.68 µM
Ki (HsCht [2]): 8.23 µM
Ki (OfChtI [3]): 6.43 µM
Ki (hAMCase [4]): 7.43 µM
Kd (SmChiB [5]; [13]): 1.12 µM
SMILES: COC(=O)CCC(=O)Oc1c(OC)ccc2cc3[n+](cc12)CCc1cc2c(cc1-3)OCO2 [4a]
